{
  "source": "paper PMC11432330",
  "about": "“Novel Drug-like HsrA Inhibitors Exhibit Potent Narrow-Spectrum Antimicrobial Activities against Helicobacter pylori” (International Journal of Molecular Sciences, 2024)",
  "test_system": "H. pylori 26695",
  "test": "In vivo inhibition of HsrA: RNA-Seq transcriptomic analysis of exposed cells",
  "type": "cell-based, Helicobacter pylori",
  "details": "for log2 Fold Change: exposed to lethal concentrations vs control",
  "procedure": "Bacterial growth from three blood agar plates of H. pylori ATCC 700392 (aka 26695) incubated for 48 h at 37 °C under microaerobic conditions was aseptically resuspended in BHI + FBS and adjusted to 10^7 CFU/mL. BHI broth cultures were incubated microaerobically at 37 °C for 24 h. […] At this time, bacterial growth was stopped by adding 1.5 mL ice-cold RNA stop solution (95% absolute ethanol, 5% acid-buffered phenol) and subsequently incubated on ice. Control samples were exposed to the same amount of DMSO instead of the inhibitor. Helicobacter cells from all samples were harvested by centrifugation (4000 rpm at 4 °C for 10 min), then the pellets were quickly frozen by immersion in liquid nitrogen and stored at −80 °C.\nRNA-Seq analysis was performed by GENEWIZ (Azenta Life Sciences, Leipzig, Germany). Frozen cell pellets from two biological replicates of each treatment condition were properly submitted to GENEWIZ in dry ice. RNA-Seq libraries were prepared according to standard protocols via rRNA depletion, RNA fragmentation and random priming, reverse transcription, 5’-phosphorylation and dA-tailing of cDNAs, adaptor ligation, and PCR enrichment. Once the quality of each library was confirmed, they were sequenced on an Illumina NovaSeq 6000 (Illumina, San Diego, CA, USA) with 150-bp paired-ends. Raw sequence reads were filtered to remove possible adapter sequences and nucleotides with poor quality using Trimmomatic v.0.36 [105]. The trimmed reads were subsequently mapped to the H. pylori strain 26695 reference genome NC_000915.1 available on NCBI, by using the Bowtie2 aligner v.2.2.6 [106]. Unique gene hit counts were calculated by using featureCounts from the Subread package v.1.5.2. Only unique reads that fell within the gene regions were counted. Using DESeq2 [108], a comparison of the gene expression between the control and treated groups of samples was performed. The Wald test was used to generate p-values and log2 fold changes. Genes with an adjusted p-value < 0.05 and absolute log2 fold change >1 were considered as differentially expressed genes (DEGs) for each comparison. The RNA-Seq data generated in this study have been deposited in ArrayExpress with the accession number E-MTAB-14255.",
  "data": [
    {"smiles": "NC(=NOC(=O)Nc1ccc(Cl)cc1)c1csc([N+](=O)[O-])c1", "note": "[Ligand V, N′-{[(4-chloroanilino)carbonyl]}oxy-5-nitrothiophene-3-carboximidamide]", "values": [
      {"measurement": "log2 Fold Change HP0986", "setting": "gene HP0986, lethal concentrations of V vs control", "value": 0.434},
      {"measurement": "log2 Fold Change", "setting": "gene HP0987", "value": -0.503},
      {"measurement": "log2 Fold Change HP0989", "setting": "gene HP0989, lethal concentrations of V vs control", "value": 0.305},
      {"measurement": "log2 Fold Change HP0993", "setting": "gene HP0993, lethal concentrations of V vs control", "value": 0.415},
      {"measurement": "log2 Fold Change HP0995", "setting": "gene HP0995, lethal concentrations of V vs control", "value": 0.339},
      {"measurement": "log2 Fold Change HP0997", "setting": "gene HP0997, lethal concentrations of V vs control", "value": 0.344},
      {"measurement": "log2 Fold Change HP1008", "setting": "gene HP1008, lethal concentrations of V vs control", "value": 0.406},
      {"measurement": "log2 Fold Change HP1023", "setting": "gene HP1023, lethal concentrations of V vs control", "value": 0.173},
      {"measurement": "log2 Fold Change HP1030", "setting": "gene HP1030, lethal concentrations of V vs control", "value": 0.181},
      {"measurement": "log2 Fold Change HP1036", "setting": "gene HP1036, lethal concentrations of V vs control", "value": 0.464},
      {"measurement": "log2 Fold Change", "setting": "gene HP1042", "value": -0.579},
      {"measurement": "log2 Fold Change HP1057", "setting": "gene HP1057, lethal concentrations of V vs control", "value": 0.304},
      {"measurement": "log2 Fold Change", "setting": "gene HP1067", "value": -0.595},
      {"measurement": "log2 Fold Change HP1080", "setting": "gene HP1080, lethal concentrations of V vs control", "value": 0.450},
      {"measurement": "log2 Fold Change HP1083", "setting": "gene HP1083, lethal concentrations of V vs control", "value": 0.380},
      {"measurement": "log2 Fold Change HP1088", "setting": "gene HP1088, lethal concentrations of V vs control", "value": 0.367},
      {"measurement": "log2 Fold Change HP1091", "setting": "gene HP1091, lethal concentrations of V vs control", "value": 0.326},
      {"measurement": "log2 Fold Change HP1094", "setting": "gene HP1094, lethal concentrations of V vs control", "value": 0.330},
      {"measurement": "log2 Fold Change HP1095", "setting": "gene HP1095, lethal concentrations of V vs control", "value": 0.451},
      {"measurement": "log2 Fold Change HP1096", "setting": "gene HP1096, lethal concentrations of V vs control", "value": 0.362},
      {"measurement": "log2 Fold Change HP1098", "setting": "gene HP1098, lethal concentrations of V vs control", "value": 0.266},
      {"measurement": "log2 Fold Change", "setting": "gene HP1102", "value": 1.324},
      {"measurement": "log2 Fold Change", "setting": "gene HP1112", "value": -0.531},
      {"measurement": "log2 Fold Change HP1113", "setting": "gene HP1113, lethal concentrations of V vs control", "value": 0.235},
      {"measurement": "log2 Fold Change HP1115", "setting": "gene HP1115, lethal concentrations of V vs control", "value": 0.309},
      {"measurement": "log2 Fold Change HP1120", "setting": "gene HP1120, lethal concentrations of V vs control", "value": 0.296},
      {"measurement": "log2 Fold Change HP1122", "setting": "gene HP1122, lethal concentrations of V vs control", "value": 0.364},
      {"measurement": "log2 Fold Change HP1125", "setting": "gene HP1125, lethal concentrations of V vs control", "value": 0.243},
      {"measurement": "log2 Fold Change HP1132", "setting": "gene HP1132, lethal concentrations of V vs control", "value": 0.451},
      {"measurement": "log2 Fold Change HP1139", "setting": "gene HP1139, lethal concentrations of V vs control", "value": 0.341},
      {"measurement": "log2 Fold Change HP1140", "setting": "gene HP1140, lethal concentrations of V vs control", "value": 0.260},
      {"measurement": "log2 Fold Change HP1142", "setting": "gene HP1142, lethal concentrations of V vs control", "value": 0.424},
      {"measurement": "log2 Fold Change HP1154", "setting": "gene HP1154, lethal concentrations of V vs control", "value": 0.259},
      {"measurement": "log2 Fold Change HP1157", "setting": "gene HP1157, lethal concentrations of V vs control", "value": 0.263},
      {"measurement": "log2 Fold Change", "setting": "gene HP1159", "value": -0.549},
      {"measurement": "log2 Fold Change HP1164", "setting": "gene HP1164, lethal concentrations of V vs control", "value": 0.208},
      {"measurement": "log2 Fold Change HP1165", "setting": "gene HP1165, lethal concentrations of V vs control", "value": 0.470},
      {"measurement": "log2 Fold Change HP1171", "setting": "gene HP1171, lethal concentrations of V vs control", "value": 0.290},
      {"measurement": "log2 Fold Change", "setting": "gene HP1184", "value": -0.471},
      {"measurement": "log2 Fold Change HP1193", "setting": "gene HP1193, lethal concentrations of V vs control", "value": 0.413},
      {"measurement": "log2 Fold Change", "setting": "gene HP1196", "value": -0.491},
      {"measurement": "log2 Fold Change HP1218", "setting": "gene HP1218, lethal concentrations of V vs control", "value": 0.194},
      {"measurement": "log2 Fold Change HP1221", "setting": "gene HP1221, lethal concentrations of V vs control", "value": 0.426},
      {"measurement": "log2 Fold Change HP1222", "setting": "gene HP1222, lethal concentrations of V vs control", "value": 0.384},
      {"measurement": "log2 Fold Change HP1226", "setting": "gene HP1226, lethal concentrations of V vs control", "value": 0.186},
      {"measurement": "log2 Fold Change", "setting": "gene HP1232", "value": -0.511},
      {"measurement": "log2 Fold Change HP1234", "setting": "gene HP1234, lethal concentrations of V vs control", "value": 0.340},
      {"measurement": "log2 Fold Change", "setting": "gene HP1243", "value": 1.352},
      {"measurement": "log2 Fold Change HP1251", "setting": "gene HP1251, lethal concentrations of V vs control", "value": 0.458},
      {"measurement": "log2 Fold Change", "setting": "gene HP1258", "value": -0.491},
      {"measurement": "log2 Fold Change HP1261", "setting": "gene HP1261, lethal concentrations of V vs control", "value": 0.181},
      {"measurement": "log2 Fold Change HP1262", "setting": "gene HP1262, lethal concentrations of V vs control", "value": 0.367},
      {"measurement": "log2 Fold Change HP1264", "setting": "gene HP1264, lethal concentrations of V vs control", "value": 0.389},
      {"measurement": "log2 Fold Change HP1267", "setting": "gene HP1267, lethal concentrations of V vs control", "value": 0.146},
      {"measurement": "log2 Fold Change", "setting": "gene HP1270", "value": -0.476},
      {"measurement": "log2 Fold Change HP1285", "setting": "gene HP1285, lethal concentrations of V vs control", "value": 0.248},
      {"measurement": "log2 Fold Change HP1322", "setting": "gene HP1322, lethal concentrations of V vs control", "value": 0.318},
      {"measurement": "log2 Fold Change HP1337", "setting": "gene HP1337, lethal concentrations of V vs control", "value": 0.239},
      {"measurement": "log2 Fold Change", "setting": "gene HP1343", "value": -0.493},
      {"measurement": "log2 Fold Change", "setting": "gene HP1346", "value": -0.518},
      {"measurement": "log2 Fold Change HP1352", "setting": "gene HP1352, lethal concentrations of V vs control", "value": 0.160},
      {"measurement": "log2 Fold Change", "setting": "gene HP1355", "value": -0.601},
      {"measurement": "log2 Fold Change", "setting": "gene HP1357", "value": -0.489},
      {"measurement": "log2 Fold Change HP1358", "setting": "gene HP1358, lethal concentrations of V vs control", "value": 0.185},
      {"measurement": "log2 Fold Change HP1359", "setting": "gene HP1359, lethal concentrations of V vs control", "value": 0.220},
      {"measurement": "log2 Fold Change HP1361", "setting": "gene HP1361, lethal concentrations of V vs control", "value": 0.344},
      {"measurement": "log2 Fold Change HP1363", "setting": "gene HP1363, lethal concentrations of V vs control", "value": 0.291},
      {"measurement": "log2 Fold Change HP1366", "setting": "gene HP1366, lethal concentrations of V vs control", "value": 0.348},
      {"measurement": "log2 Fold Change HP1371", "setting": "gene HP1371, lethal concentrations of V vs control", "value": 0.280},
      {"measurement": "log2 Fold Change HP1377", "setting": "gene HP1377, lethal concentrations of V vs control", "value": 0.474},
      {"measurement": "log2 Fold Change HP1380", "setting": "gene HP1380, lethal concentrations of V vs control", "value": 0.326},
      {"measurement": "log2 Fold Change", "setting": "gene HP1381", "value": -0.548},
      {"measurement": "log2 Fold Change HP1385", "setting": "gene HP1385, lethal concentrations of V vs control", "value": 0.232},
      {"measurement": "log2 Fold Change HP1404", "setting": "gene HP1404, lethal concentrations of V vs control", "value": 0.393},
      {"measurement": "log2 Fold Change", "setting": "gene HP1411", "value": 1.307},
      {"measurement": "log2 Fold Change HP1433", "setting": "gene HP1433, lethal concentrations of V vs control", "value": 0.238},
      {"measurement": "log2 Fold Change HP1434", "setting": "gene HP1434, lethal concentrations of V vs control", "value": 0.407},
      {"measurement": "log2 Fold Change HP1435", "setting": "gene HP1435, lethal concentrations of V vs control", "value": 0.348},
      {"measurement": "log2 Fold Change HP1436", "setting": "gene HP1436, lethal concentrations of V vs control", "value": 0.297},
      {"measurement": "log2 Fold Change HP1438", "setting": "gene HP1438, lethal concentrations of V vs control", "value": 0.319},
      {"measurement": "log2 Fold Change", "setting": "gene HP1442", "value": -0.497}
    ]}
  ]
}
